According to PubChem BioAssay AID1259407 (Chemical Carcinogenesis Research Information System (CCRIS), 2018):
Activity calls are given as the source filed them. The rule behind the calls is not given here.

System: CCRIS mutagenicity, Ames/micronucleus/aberration tests
Experiment: CCRIS mutagenicity studies
[1] = Test System: AMES SALMONELLA TYPHIMURIUM, Strain/Indicator: TA98, Metabolic Activation: NONE, Method: PREINCUBATION
[2] = Test System: AMES SALMONELLA TYPHIMURIUM, Strain/Indicator: TA100, Metabolic Activation: NONE, Method: PREINCUBATION
[3] = Test System: AMES SALMONELLA TYPHIMURIUM, Strain/Indicator: TA98, Metabolic Activation: NONE, Method: STANDARD PLATE
[4] = Test System: AMES SALMONELLA TYPHIMURIUM, Strain/Indicator: TA100, Metabolic Activation: NONE, Method: STANDARD PLATE

## FC(F)(F)C(Cl)Br (stereo not given)
End Point: IN VITRO CHROMOSOMAL ABERRATIONS, Test System: CHINESE HAMSTER OVARY CELLS, Metabolic Activation: NONE
  mutagenic call: inactive; negative
End Point: IN VITRO CHROMOSOMAL ABERRATIONS, Test System: CHINESE HAMSTER OVARY CELLS, Metabolic Activation: RAT, LIVER, S-9, AROCLOR 1254
  mutagenic call: inactive; negative
Test System: AMES SALMONELLA TYPHIMURIUM, Strain/Indicator: TA98, Metabolic Activation: HAMSTER, LIVER, S-9, AROCLOR 1254 (10%), Method: PREINCUBATION
  mutagenic call: inactive; negative
[1]
  mutagenic call: inactive; negative
Test System: AMES SALMONELLA TYPHIMURIUM, Strain/Indicator: TA98, Metabolic Activation: RAT, LIVER, S-9, AROCLOR 1254 (10%), Method: PREINCUBATION
  mutagenic call: inactive; negative
Test System: AMES SALMONELLA TYPHIMURIUM, Strain/Indicator: TA100, Metabolic Activation: HAMSTER, LIVER, S-9, AROCLOR 1254 (10%), Method: PREINCUBATION
  mutagenic call: inactive; negative
[2]
  mutagenic call: inactive; negative
Test System: AMES SALMONELLA TYPHIMURIUM, Strain/Indicator: TA100, Metabolic Activation: RAT, LIVER, S-9, AROCLOR 1254 (10%), Method: PREINCUBATION
  mutagenic call: inactive; negative
Test System: AMES SALMONELLA TYPHIMURIUM, Strain/Indicator: TA1535, Metabolic Activation: HAMSTER, LIVER, S-9, AROCLOR 1254 (10%), Method: PREINCUBATION
  mutagenic call: inactive; negative
Test System: AMES SALMONELLA TYPHIMURIUM, Strain/Indicator: TA1535, Metabolic Activation: NONE, Method: PREINCUBATION
  mutagenic call: inactive; negative
Test System: AMES SALMONELLA TYPHIMURIUM, Strain/Indicator: TA1535, Metabolic Activation: RAT, LIVER, S-9, AROCLOR 1254 (10%), Method: PREINCUBATION
  mutagenic call: inactive; negative
Test System: AMES SALMONELLA TYPHIMURIUM, Strain/Indicator: TA1537, Metabolic Activation: HAMSTER, LIVER, S-9, AROCLOR 1254 (10%), Method: PREINCUBATION
  mutagenic call: inactive; negative
Test System: AMES SALMONELLA TYPHIMURIUM, Strain/Indicator: TA1537, Metabolic Activation: NONE, Method: PREINCUBATION
  mutagenic call: inactive; negative
Test System: AMES SALMONELLA TYPHIMURIUM, Strain/Indicator: TA1537, Metabolic Activation: RAT, LIVER, S-9, AROCLOR 1254 (10%), Method: PREINCUBATION
  mutagenic call: inactive; negative

## O=C(O)c1c(Cl)cccc1Cl
[1]
  mutagenic call: inactive; negative
Test System: AMES SALMONELLA TYPHIMURIUM, Strain/Indicator: TA98, Metabolic Activation: RAT LIVER S-9, PCB, Method: PREINCUBATION
  mutagenic call: inactive; negative
[2]
  mutagenic call: inactive; negative
Test System: AMES SALMONELLA TYPHIMURIUM, Strain/Indicator: TA100, Metabolic Activation: RAT LIVER S-9, PCB, Method: PREINCUBATION
  mutagenic call: inactive; negative
Test System: AMES SALMONELLA TYPHIMURIUM, Strain/Indicator: TA104, Metabolic Activation: NONE, Method: PREINCUBATION
  mutagenic call: inactive; negative
Test System: AMES SALMONELLA TYPHIMURIUM, Strain/Indicator: TA104, Metabolic Activation: RAT LIVER S-9, PCB, Method: PREINCUBATION
  mutagenic call: inactive; negative
Test System: E.COLI, Strain/Indicator: WP2 UVRA, Metabolic Activation: NONE, Method: PREINCUBATION
  mutagenic call: inactive; negative
Test System: E.COLI, Strain/Indicator: WP2 UVRA, Metabolic Activation: RAT LIVER S-9, PCB, Method: PREINCUBATION
  mutagenic call: inactive; negative

## O=S(=O)(O)OCc1c2ccccc2c(CO)c2c1ccc1ccccc12
[1]
  mutagenic call: active; positive

## CCc1c2ccccc2c(C)c2c1ccc1ccccc12
Test System: AMES SALMONELLA TYPHIMURIUM, Strain/Indicator: TA98, Method: STANDARD PLATE
  mutagenic call: inactive; negative
Test System: AMES SALMONELLA TYPHIMURIUM, Strain/Indicator: TA100, Metabolic Activation: RAT, LIVER, S-9, PHENOBARBITAL, Method: STANDARD PLATE
  mutagenic call: inactive; negative
Test System: AMES SALMONELLA TYPHIMURIUM, Strain/Indicator: TA100, Method: STANDARD PLATE
  mutagenic call: inactive; negative

## CC1(C)C(C(=O)OC(C#N)c2cccc(Oc3ccccc3)c2)C1(C)C (stereo not given)
End Point: In vitro chromasomal aberrations, Test System: Chinese hamster ovary (CHO-K1) cells, Metabolic Activation: None
  mutagenic call: inactive; negative
End Point: In vitro chromasomal aberrations, Test System: Chinese hamster ovary (CHO-K1) cells, Metabolic Activation: Rat, liver, S-9, PCB
  mutagenic call: inactive; negative
[3]
  mutagenic call: inactive; negative
Test System: AMES SALMONELLA TYPHIMURIUM, Strain/Indicator: TA98, Metabolic Activation: S-9, Method: STANDARD PLATE
  mutagenic call: inactive; negative
[4]
  mutagenic call: inactive; negative
Test System: AMES SALMONELLA TYPHIMURIUM, Strain/Indicator: TA100, Metabolic Activation: S-9, Method: STANDARD PLATE
  mutagenic call: inactive; negative
Test System: AMES SALMONELLA TYPHIMURIUM, Strain/Indicator: TA1535, Metabolic Activation: NONE, Method: STANDARD PLATE
  mutagenic call: inactive; negative
Test System: AMES SALMONELLA TYPHIMURIUM, Strain/Indicator: TA1535, Metabolic Activation: S-9, Method: STANDARD PLATE
  mutagenic call: inactive; negative
Test System: AMES SALMONELLA TYPHIMURIUM, Strain/Indicator: TA1537, Metabolic Activation: NONE, Method: STANDARD PLATE
  mutagenic call: inactive; negative
Test System: AMES SALMONELLA TYPHIMURIUM, Strain/Indicator: TA1537, Metabolic Activation: S-9, Method: STANDARD PLATE
  mutagenic call: inactive; negative
Test System: Ames Salmonella typhimurium, Strain/Indicator: TA98, Metabolic Activation: Rat, Liver, S-9, Kanechlor-400, Method: Preincubation
  mutagenic call: inactive; negative
Test System: Ames Salmonella typhimurium, Strain/Indicator: TA100, Metabolic Activation: Rat, Liver, S-9, Kanechlor-400, Method: Preincubation
  mutagenic call: inactive; negative
Test System: Ames Salmonella typhimurium, Strain/Indicator: TA1535, Metabolic Activation: Rat, Liver, S-9, Kanechlor-400, Method: Preincubation
  mutagenic call: inactive; negative
Test System: Ames Salmonella typhimurium, Strain/Indicator: TA1537, Metabolic Activation: Rat, Liver, S-9, Kanechlor-400, Method: Preincubation
  mutagenic call: inactive; negative
Test System: Ames Salmonella typhimurium, Strain/Indicator: TA1538, Metabolic Activation: Rat, Liver, S-9, Kanechlor-400, Method: Preincubation
  mutagenic call: inactive; negative
Test System: E. coli, Strain/Indicator: WP2uvrA, Metabolic Activation: Rat, Liver, S-9, Kanechlor-400, Method: Preincubation
  mutagenic call: inactive; negative

## Nc1ccc(S(=O)(=O)c2ccc(N)cc2)cc1
[1]
  mutagenic call: inactive; negative
[3]
  mutagenic call: inactive; negative
Test System: AMES SALMONELLA TYPHIMURIUM, Strain/Indicator: TA98, Metabolic Activation: RAT, LIVER, S-9, PCB, Method: STANDARD PLATE
  mutagenic call: inactive; negative
[2]
  mutagenic call: inactive; negative
[4]
  mutagenic call: inactive; negative
Test System: AMES SALMONELLA TYPHIMURIUM, Strain/Indicator: TA100, Metabolic Activation: RAT, LIVER, S-9, PCB, Method: STANDARD PLATE
  mutagenic call: inactive; negative
Test System: E. COLI, Strain/Indicator: WP2 UVRA, Metabolic Activation: HAMSTER, LIVER, S-9, AROCLOR 1254, Method: STANDARD PLATE
  mutagenic call: inactive; negative
Test System: E. COLI, Strain/Indicator: WP2 UVRA, Metabolic Activation: HAMSTER, LIVER, S-9, Method: STANDARD PLATE
  mutagenic call: inactive; negative
Test System: E. COLI, Strain/Indicator: WP2 UVRA, Metabolic Activation: MOUSE, LIVER, S-9, AROCLOR 1254, Method: STANDARD PLATE
  mutagenic call: inactive; negative
Test System: E. COLI, Strain/Indicator: WP2 UVRA, Metabolic Activation: MOUSE, LIVER, S-9, Method: STANDARD PLATE
  mutagenic call: inactive; negative
Test System: E. COLI, Strain/Indicator: WP2 UVRA, Metabolic Activation: NONE, Method: STANDARD PLATE
  mutagenic call: inactive; negative
Test System: E. COLI, Strain/Indicator: WP2 UVRA, Metabolic Activation: RAT, LIVER, S-9, AROCLOR 1254, Method: STANDARD PLATE
  mutagenic call: inactive; negative
Test System: E. COLI, Strain/Indicator: WP2 UVRA, Metabolic Activation: RAT, LIVER, S-9, Method: STANDARD PLATE
  mutagenic call: inactive; negative
